What was measured:
[1] = Binding affinity to 6His-tagged KRAS G12V mutant /GST-tagged RAF1 (unknown origin) incubated for 60 mins by fluorescence based microplate reader assay; parameters: species or system Homo sapiens
[2] = target: GTPase KRas (Homo sapiens, UniProt P01116, G12V); test: Induction of KRAS G12V mutant degradation in human SW1990 cells incubated for 24 hrs; format: cell-based
Sequence of GTPase KRas (P01116 whole entry G12V): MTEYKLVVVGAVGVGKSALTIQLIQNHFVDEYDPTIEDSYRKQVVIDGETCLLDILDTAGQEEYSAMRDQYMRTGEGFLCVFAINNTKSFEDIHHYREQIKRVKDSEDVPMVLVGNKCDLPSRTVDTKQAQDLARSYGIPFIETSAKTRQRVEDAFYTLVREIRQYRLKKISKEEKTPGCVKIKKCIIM

Row | IC50 [1] [nM] | DC50 [2] [nM] | SMILES
1 | ≤ 20 | ≤ 1 | CCc1c(F)ccc2cc(O)cc(-c3ncc4c(N5CCC[C@@](C)(O)C5)nc(OCC5(CN6CCC(C)(CN7CC8(CCN(c9ccc%10c(c9)CN([C@H]9CCC(=O)NC9=O)C%10=O)CC8)C7)CC6)CC5)nc4c3F)c12
2 | ≤ 20 | ≤ 1 | CCc1c(F)ccc2cc(O)cc(-c3ncc4c(N5CCC[C@@](C)(O)C5)nc(OCC5(CN6CCC7(CC6)CC(N6CCN(c8ccc9c(c8)CN([C@H]8CCC(=O)NC8=O)C9=O)CC6)C7)CC5)nc4c3F)c12
3 | ≤ 20 | ≤ 1 | CCc1c(F)ccc2cc(O)cc(-c3ncc4c(N5CCC[C@@](C)(O)C5)nc(OCC5(CN6CCC(OC7CCN(C8CCN(c9ccc%10c(c9)CN(C9CCC(=O)NC9=O)C%10=O)CC8)CC7)CC6)CC5)nc4c3F)c12 (some centres not stated)
4 | 20 | 1 | CCc1c(F)ccc2cc(O)cc(-c3ncc4c(N5CCC[C@]6(CCO6)C5)nc(OCC5(CN6CCC(CN7CCN(c8ccc9c(c8)CN([C@H]8CCC(=O)NC8=O)C9=O)CC7)CC6)CC5)nc4c3F)c12
5 | ≤ 20 | ≤ 1 | CCc1c(F)ccc2cc(O)cc(-c3ncc4c(N5CCC[C@@](C)(O)C5)nc(OCC5(CN6CC(N7CCC(N8CCN(c9ccc%10c(c9)CN([C@H]9CCC(=O)NC9=O)C%10=O)CC8)CC7)C6)CC5)nc4c3F)c12
6 | 20 | ≤ 1 | CCc1cccc2cc(O)cc(-c3ncc4c(N5CCC[C@@](C)(O)C5)nc(OCC5(CN6CCC(OC7CCN(c8ccc9c(c8)CN(C8CCC(=O)NC8=O)C9=O)CC7)CC6)CC5)nc4c3F)c12 (some centres not stated)

Reference: ChEMBL document CHEMBL5584285, “Advancements in Protein Degradation for Cancer Therapy” (ACS Med Chem Lett, 2024)
